In patent publication US6897237B2, “MMP-12 inhibitors” (Shionogi & Co. Ltd., priority 2000, dated 2005):

Tests used:
MMP-9 = molecular target: T1, MMP-9 (Homo sapiens, UniProt P14780); experiment: Assay for inhibitory activities on MMPs (fluorogenic peptide substrate): MMP-9; assay type: biochemical; conditions: substrate MOCAc-Pro-Leu-Gly-Leu-A2Pr(DNP)-Ala-Arg-NH2
T1 construct: endogenous in cells; host or cells: HT1080 human fibrosarcoma cells, TPA-stimulated; purified in house from conditioned medium
T1 sequence (P14780 107-707 limits assumed): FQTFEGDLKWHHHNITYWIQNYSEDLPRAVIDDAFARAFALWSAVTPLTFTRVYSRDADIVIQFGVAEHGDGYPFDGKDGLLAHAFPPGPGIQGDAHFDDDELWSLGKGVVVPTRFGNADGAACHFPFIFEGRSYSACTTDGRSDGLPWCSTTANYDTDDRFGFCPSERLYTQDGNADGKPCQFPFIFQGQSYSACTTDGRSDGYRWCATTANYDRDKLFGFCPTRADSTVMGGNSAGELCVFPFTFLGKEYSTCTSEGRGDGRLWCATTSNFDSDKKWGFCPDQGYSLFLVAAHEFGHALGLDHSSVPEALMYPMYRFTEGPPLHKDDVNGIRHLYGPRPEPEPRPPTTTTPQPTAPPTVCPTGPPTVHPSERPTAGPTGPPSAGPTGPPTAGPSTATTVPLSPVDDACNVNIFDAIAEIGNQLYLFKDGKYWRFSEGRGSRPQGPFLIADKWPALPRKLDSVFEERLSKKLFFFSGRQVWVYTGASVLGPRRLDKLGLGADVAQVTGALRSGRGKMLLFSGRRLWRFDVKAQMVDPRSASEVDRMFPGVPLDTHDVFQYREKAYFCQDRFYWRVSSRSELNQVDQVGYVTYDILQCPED
Description: MMP-9 was isolated and purified by using a combination of procedures described in previous reports as follows. Yasunori Okada, Yukio Gonoji, Katsumi Naka, Katsuro Tomita, Isao Nakanishi, Kazushi Iwata, Kyoko Yamashita, and Taro Hayakawa: Matrix metalloproteinase 9 (92-kDa gelatinase/type IV collagenase) from HT1080 human fibrosarcoma cells. Purification and activation of the precursor and enzymic properties. J. Biol. Chem., 267 (1.992) 21712-21719. Yasunori Okada, Tatsuhisa Morodomi, Jan J, Enghild, Ko Suzuki, Atsushi Yasui, Isao Nakanishi, Guy Salvesen and Hideaki Nagase: Matrix metalloproteinase 2 from human rheumatoid synovial fibroblasts. Purification and activation of the precursor and enzymic properties. Eur. J. Biochem. 194 (1990) 721-730. Robin V Ward, Rosalind M Hembry, John J Reynolds and Gillian Murphy: The purification of tissue inhibitor of metalloproteinase-2 from its 72 kDa progelatinase complex. Biochem. J. 278 (1991) 179-187.
Briefly, human fibrosarcoma ATCC HT1080 cell line was cultured to confluent in Dulbecco's Modified Medium (DMEM) containing 10% fetal-calf serum at 37° C. for 48 hours. Subsequently, the medium of confluent culture was changed to serum-free DMEM medium. To obtain MMP-9, Phorbol-12-myristate-13-acetate (TPA) must be added to this serum-free DMEM medium at a concentration of 50 ng/ml. The TPA treated medium was centrifuged at 3000 rpm for 15 min and the supernatant was concentrated to 450 ml by a Toyo-Roshi UP-20 apparatus with an ultrafiltration membrane. Then, proMMP-9 in this concentrated solution was purified by using columns of Gelatin-Sepharose and Concanavalin A-Sepharose. The pool containing proMMP-9 was dialyzed, concentrated (Toyo-Roshi UP-20) and applied to columns of Sephacryl S-200 and Green A matrix for the separation from TIMPs. The obtained proMMP-9 fraction was activated by TPCK-Trypsin (final conc. […] reaction mix.).
(§1) The enzymatic activity on MMPs was analyzed by the method described in “C. Graham Knight, Frances Willenbrock and Gillian Murphy: A novel coumarin-labelled peptide for sensitive continuous assays of the matrix metalloproteinases: FEBS LETT., 296, (1992), 263-266”. The substrate: MOCAc-Pro-Leu-Gly-Leu-A2Pr(DNP)-Ala-Arg-NH2 was purchased from Peptide Institute, Inc., Osaka, Japan. The measurement of the inhibitory activities (IC50) was carried out by the following four methods;
(§2) (A) Reaction with substrate, enzyme (MMPs) and inhibitor
(§3) (B) Reaction with substrate and inhibitor, without enzyme
(§4) (C) Reaction with substrate and enzyme (MMPs), without inhibitor
(§5) (D) Reaction with substrate only
(§6) IC50 values were calculated by using the following formula and each fluorescence values of above four methods (A to D).
(§7) % inhibition={1−(A−B)/(C−D)}×100
(§8) IC50 means the concentration required to inhibit 50% of the enzyme activity.

[1] = system: Sprague-Dawley male rats exposed to cigarette smoke; experiment: Cigarette smoke exposure in rats, lung mechanics; assay type: in vivo, rat; conditions: 30 mg/kg p.o. twice daily
Method: Sprague-Dawley male rats (390-430 g initial body weight) were exposed daily to smoke from commercial filtered cigarettes (30 cigarettes/rat/day, 5 days/week, for 7 to 8 weeks) with a smoke-generating and whole-body exposure system. The animals received 30 mg/kg p.o. twice daily of compound (B-6), which was suspended with 0.5% methyl cellulose. Vehicle animals received 2 ml/kg of 0.5% methyl cellulose. At 16-24 hr after the last exposure with cigarette smoke, anesthesia was induced with intraperitoneal injection of 40 mg/kg of pentobarbital sodium. Immediately after muscle relaxation with intravenous pancuronium bromide (0.3 mg/rat), animals were mechanically ventilated with a pressure-limited ventilator and were evaluated dynamic compliance. After exsanguination, the lung was attached to a glass syringe via a connector tube and continuously inflated through the airway to a transpulmonary pressure of 30 cmH2O, deflated them to a Ptp of 0 cmH2O, and aspirated them to a Ptp of −20 cmH2O. The change of Ptp and lung volume was monitored and recorded as the deflation pressure-volume (P-V) curve. Static lung compliance defined as the slope of steep portion of the deflation P-V curve was evaluated. Inspiratory capacity (IC) defined as the difference in lung volume between total lung capacity at a Ptp of 25 cmH2O and functional residual capacity at a Ptp of 0 cmH2O was evaluated.
Data are expressed as means ±S.D. Statistical analysis was performed with one-sided Student's t-test. A value of P<0.05 was considered significant.

MMP-13 catalytic domain = molecular target: T2, MMP-13 catalytic domain (Homo sapiens, UniProt P45452); experiment: Assay for inhibitory activities on MMPs (fluorogenic peptide substrate): MMP-13; assay type: biochemical; conditions: substrate MOCAc-Pro-Leu-Gly-Leu-A2Pr(DNP)-Ala-Arg-NH2
T2 construct: catalytic domain (^104Tyr˜^267Gly); His-tag; enterokinase digestion-site; made in house; host or cells: Escherichia coli
Method: In regard to MMP-13, mRNA was prepared from carcinoma cell SW1353 derived from human cartilage stimulate by IL-1, TNF and catalytic domain (^104Tyr˜^267Gly) was amplified with RT-PCR. This was cloned in Escherichia coli expression vector pTrc99AHE inserted with His-tag sequence and enterokinase digestion-site, induced and expressed by IPTG (Isopropyl-β-D-thiogalactopyranoside) and expressed in a insoluble fraction. Isolation of MMP-1.3 from a insoluble fraction was carried out by dissolving in modifier (6M urea) by a usual method and purification with metal chelate chromatography (Ni Chelateing Sepharose). And then removing modifier (6M urea) with dialyze and refolding of the enzyme spontaneously gave activated MMP-13.
as §1, §2, §3, §4, §5, §6, §7, §8

MMP-2 = molecular target: T3, MMP-2 (Homo sapiens, UniProt P08253); experiment: Assay for inhibitory activities on MMPs (fluorogenic peptide substrate): MMP-2; assay type: biochemical; conditions: substrate MOCAc-Pro-Leu-Gly-Leu-A2Pr(DNP)-Ala-Arg-NH2
T3 construct: purchased Calbiochem-Novabiochem International, Inc
T3 sequence (P08253 110-660): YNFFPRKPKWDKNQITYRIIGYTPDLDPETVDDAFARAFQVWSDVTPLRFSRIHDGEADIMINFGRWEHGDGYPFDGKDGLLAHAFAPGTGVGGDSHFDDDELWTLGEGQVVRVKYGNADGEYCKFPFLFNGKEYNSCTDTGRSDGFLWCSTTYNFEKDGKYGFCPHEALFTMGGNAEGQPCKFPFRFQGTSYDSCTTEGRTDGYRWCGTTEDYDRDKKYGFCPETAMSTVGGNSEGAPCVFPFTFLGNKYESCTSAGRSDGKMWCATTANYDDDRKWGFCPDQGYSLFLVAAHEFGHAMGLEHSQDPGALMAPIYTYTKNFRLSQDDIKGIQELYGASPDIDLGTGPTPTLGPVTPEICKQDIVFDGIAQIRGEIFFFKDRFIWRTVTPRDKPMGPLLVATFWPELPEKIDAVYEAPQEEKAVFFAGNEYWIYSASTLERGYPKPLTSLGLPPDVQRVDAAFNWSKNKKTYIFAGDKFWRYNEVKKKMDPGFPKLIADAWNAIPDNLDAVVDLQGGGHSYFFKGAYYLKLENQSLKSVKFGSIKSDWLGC
Method: MMP-2 was purchased from Calbiochem-Novabiochem International, Inc.
as §1, §2, §3, §4, §5, §6, §7, §8

[2] = cigarette smoke exposure 7 to 8 weeks, means ± S.D., n = 7

Q: Which results are given for `C[C@@H](NS(=O)(=O)c1ccc(C#Cc2ccc3ccccc3c2)s1)C(=O)O` [Compound B-6]?
A: IC50 (MMP-9): 0.84 µM; effect on increase of dynamic compliance by cigarette smoke exposure (in words) [1]: tended to attenuate the increase; effect on increase of inspiratory capacity by cigarette smoke exposure (in words) [1]: tended to attenuate the increase; effect on increase of static lung compliance by cigarette smoke exposure (in words) [1]: significantly reduced the increase; Inspiratory capacity [1, 2]: 21.76 ± 1.85 mL/kg; dynamic compliance [1, 2]: 0.96 ± 0.17 ml/cmH2O/kg; Static lung compliance ([1]; cigarette smoke exposure 7 to 8 weeks, means ± S.D., n = 7, P < 0.05 vs. Cigarette smoke exposure): 2.05 ± 0.25 ml/cmH2O/kg; IC50 (MMP-13 catalytic domain): 0.84 µM; IC50 (MMP-2): 0.35 µM
